# Measured values published in US10357490B2, “Combinations for the treatment of neuroblastoma” (IGNYTA, INC., priority 2014, dated 2019).
# Legend:
# [1] = test system: TrkB-expressing neuroblastoma cells (SH-SY5Y cells stably transfected with TrkB); assay: Sulphorhodamine B (SRB) assay, survival and growth of TrkB-expressing neuroblastoma cells; format: cell-based; details: single agent; 1-100 nM; 100 ng per mL BDNF; 24, 48, 72 hours
# SY5Y-TrkB cells = assay: SY5Y-TrkB xenograft study: tumor growth and event-free survival; format: in vivo, athymic nu/nu mice; details: oral
# Procedure: N-[5-(3,5-difluorobenzyl)-1H-indazol-3-yl]-4-(4-methyl-piperazin-1-yl)-2-(tetrahydro-2H-pyran-4-ylamino) benzamide_was dissolved in DMSO to obtain stocks for in vitro studies. For in vivo xenograft experiments, N-[5-(3,5-difluorobenzyl)-1H-indazol-3-yl]-4-(4-methyl-piperazin-1-yl)-2-(tetrahydro-2H-pyran-4-ylamino) benzamide was reconstituted in 0.5% methyl cellulose (Sigma-Aldrich, viscosity 400 cP, 2% in H2O) containing 1% Tween 80 at a final dosing volume of 10 mL per kg. Prior to dosing, the formulation was stirred at room temperature for 30 min, and then sonicated in a water bath sonicator for 20 min. The formulation was made fresh every week. For the in vivo study, the animals were dosed with the formulation of N-[5-(3,5-difluorobenzyl)-1H-indazol-3-yl]-4-(4-methyl-piperazin-1-yl)-2-(tetrahydro-2H-pyran-4-ylamino) benzamide twice a day (BID) for 7 days per week at a dose of 60 mg per kg.
# Xenograft studies were performed using SH-SY5Y cells stably transfected with TrkB. Cells were grown in RPMI-1640 medium containing 10% fetal bovine serum and maintained in 150 cm^3 Costar culture flasks in a humidified atmosphere of 95% air and 5% CO2. Cells were harvested using 0.2% tetra sodium EDTA in phosphate buffered saline (PBS).
# Six-week-old athymic nu/nu mice were obtained from Jackson Laboratories. Mice were maintained at five per cage under humidity- and temperature-controlled conditions in a light/dark cycle that was set at 12-hour intervals.
# For in vivo xenograft studies, six-week-old athymic nu/nu mice were injected subcutaneously in the flank with 1×10^7 SY5Y-TrkB cells in 0.1 ml of Matrigel (BD Bioscience, Palo Alto, Calif.). Tumors were measured 2 times per week in 3 dimensions, and the volume calculated as follows: [(0.523×L×W×W)/1000]. Body weights of the mice were obtained every week and the dose of the tested compounds were adjusted accordingly. […]
smiles,measurement,setting,value
"CN1CCN(c2ccc(C(=O)Nc3n[nH]c4ccc(Cc5cc(F)cc(F)c5)cc34)c(NC3CCOCC3)c2)CC1 [N-[5-(3,5-difluorobenzyl)-1H-indazol-3-yl]-4-(4-methyl-piperazin-1-yl)-2-(tetrahydro-2H-pyran-4-ylamino) benzamide]",inhibition of growth of TrkB-expressing NB cells in vitro,[1],significantly inhibited growth
same,Estimated slope from linear mixed effects model (increase of log tumor volume),"SY5Y-TrkB cells; Control vs Group 2 analysis (FIG. 3), Group 2: alone, 60 mg per kg, twice per day, 7 times per week",0.0973 per day in the log of tumor volume
same,"Estimated slope of trace in FIG. 1, linear mixed effects model","SY5Y-TrkB cells; Group 2: alone, 60 mg per kg, twice per day, 7 times per week",0.0696 per day in the log of tumor volume
same,tumor growth inhibition compared to control animals,"SY5Y-TrkB cells; single agent therapy, 60 mg per kg BID",significant tumor growth inhibition
